{"source": "patent US7604955B2", "about": "“Immunoglobulin E vaccines and methods of use thereof” (priority 2001, dated 2009)", "key": {"[1]": {"system": "HLA-A2.1", "assay": "HLA-A2.1 cell surface expression in RMA-S-A2.1 cells (FACS)", "type": "cell-based, human", "conditions": "for Increase of HLA-A2.1-specific fluorescence intensity: RMA-S-A2.1 cells, 50 micromoles per liter peptide, 37 C overnight, FITC anti-HLA-A2.1", "procedure": "Cells were pooled from the duplicate cultures and about 1×10^6 cells were incubated with 2 micrograms per milliliter fluorescein isothiocyanate-labelled anti-HLA-A2.1 antibody (catalogue number 32294x, PharMingen) at 4° C. for 30 min. Fluorescence-activated cell sorting (FACS) analysis was performed on a FACScan (Becton-Dickinson). About ten thousand events were collected and analyzed by CELLQuest software (version 1.2.2, BD Biosciences)."}, "[2]": {"system": "P815 murine mastocytoma cells", "assay": "Chromium release assay: CTL from peptide-immunized BALB/c mice against peptide-contacted P815 cells", "type": "cell-based, mouse", "conditions": "for CTL response cytotoxic to target cells displaying the peptide (specific lysis): BALB/c mice immunized with 30 micrograms peptide + OVAp in DOTAP liposomes, targets contacted with same peptide and interferon-gamma", "procedure": "The test peptides p 1 and p2 were evaluated for the ability to elicit in mice a cytotoxic T-lymphocyte response to naturally presented immunoglobulin E peptides. Eight-week old BALB/c mice in groups of four were each immunized with 30 micrograms of one of the test peptides p1 or p2, together with 30 micrograms of the co-stimulatory factor OVAp (ovalbumin peptide) (Schimokevitz, 1984, J. Immunol., 133:2067), an oligopeptide consisting of the sequence […](SEQ ID NO. 3), in N-[1-(-2,3-dioleoyloxy)propyl]-N,N,N-trimethylammonium methylsulfate (DOTAP, purchased from Boehringer Mannheim, Indianapolis, Ind.) cationic liposomes. Two weeks after the first immunization, mice in each respective group were immunized a second time with the appropriate test peptide (p1 or p2) that had been used in the initial immunization. Two weeks after the second immunization, 5×10^6 spleen cells were removed from a pool of two to four mice, established in vitro, and re-stimulated with the respective test peptide in vitro for seven days. The cytotoxic T-lymphocytes thus obtained were tested using a standard chromium release assay (Colligan et al. 2002, Current Protocols in Immunology, 3.11) for their ability as effector cells to lyse target cells. The target cells consisted of P815 murine mastocytoma cells that had been contacted with the appropriate test peptide (p1 or p2) and treated overnight with 50 units per milliliter interferon-gamma to facilitate processing of the test peptide. Effector cells (E) and target cells (T) were mixed at different E/T ratios for 4 hours. The specific lysis was determined by the following formula: [(experimental release−spontaneous release)/(maximal release−spontaneous release)]×100.\nThe test peptide p3 was similarly evaluated for the ability to elicit a cytotoxic T-lymphocyte response in mice to naturally processed and presented immunoglobulin E peptides. […] The specific lysis was determined by the following formula: [(experimental release−spontaneous release)/(maximal release−spontaneous release)]×100."}, "[3]": {"system": "murine EL-4 lymphoma cells", "assay": "Chromium release assay: CTL from immunized C57BL/6 mice against p4-contacted EL-4 cells", "type": "cell-based, mouse", "conditions": "C57BL/6 mice immunized with p4 with OVAp; p4-contacted EL-4 targets", "text": "Groups consisting each of five C57BL/6 mice were immunized with either 30 micrograms of the test peptide p4 with 30 micrograms of the co-stimulatory factor OVAp, or with 30 micrograms of the test peptide p5 delivered in 30 micrograms DOTAP liposomes. Two weeks after the first immunization, mice in each respective group were immunized a second time with the appropriate test peptide formulation (p4 plus OVAp, or p5 in DOTAP liposomes) that had been used in the initial immunization. Two weeks after the second immunization, 5×10^6 spleen cells were removed from a pool of two to four mice, established in vitro, and re-stimulated with the appropriate test peptide (p4 or p5) in vitro for seven days. The cytotoxic T-lymphocytes thus obtained were tested using a standard chromium release assay for their ability as effector cells to lyse target cells. The target cells consisted of murine EL-4 lymphoma cells, which display the major histocompatibility complex class I molecules H-2K^b and H-2D^b, and that had been contacted with the test peptide p4 and treated overnight with 50 units per milliliter interferon-gamma. Effector cells (E) and target cells (T) were mixed at different E/T ratios for 4 hours. The specific lysis was determined by the following formula: [(experimental release−spontaneous release)/(maximal release−spontaneous release)]×100."}, "[4]": {"system": "KLH-specific IgE", "assay": "Allergen-specific (KLH-specific) IgE in vivo by passive cutaneous anaphylaxis (PCA)", "design": "species or system mouse", "conditions": "BALB/c mice immunized with only OVAp in liposomes, KLH/alum challenge; pooled blood", "procedure": "In a third experiment, the effect of immunoglobulin E peptide immunization on production of allergen-specific IgE in vivo was determined. Adult BALB/c mice (5/group) were immunized twice with either the test peptide p3 or the test peptide p1, together with the co-stimulatory factor OVAp in DOTAP liposomes, or with only the co-stimulatory factor OVAp in DOTAP liposomes. Mice immunized with saline served as control. Seven days after the second immunization, mice were challenged with 1 microgram keyhole limpet hemocyanin (KLH) in 2 milligrams alum intraperitoneally four times at a 10 day interval, and the allergen-specific (KLH-specific) IgE in pooled blood was then determined by passive cutaneous anaphylaxis (PCA) reaction. […] Reduction of allergen-specific PCA correlated directly with the elicitation of IgE peptide-specific cytotoxic T-lymphocytes in vitro (as depicted in FIG. 3B)."}, "[5]": {"system": "LPS and IL-4 stimulated B-lymphocyte cultures", "assay": "Polyclonal IgE production by LPS and IL-4 stimulated B-lymphocyte cultures with CTL (ELISA)", "type": "cell-based, mouse", "conditions": "CTL from mice immunized with only OVAp in DOTAP liposomes", "procedure": "In a second experiment, BALB/c splenic B-lymphocytes were enriched by magnetic beads coated with an antibody against the B-lymphocyte-specific cell surface antigen B220. To assess CTL effects on polyclonal IgE production, 3×10^5 normal B-lymphocytes were added to either 3×10^6 p3-activated spleen cells from mice immunized with test peptide p3 together with the co-stimulatory factor OVAp in DOTAP liposomes, or to 3×10^6 p3-activated spleen cells from mice immunized with only the co-stimulatory factor OVAp in DOTAP liposomes as a control. The co-cultures were then stimulated with 20 micrograms per milliliter lipopolysaccharide (LPS) and 250 units per milliliter murine recombinant interleukin-4 (IL-4). Two days later, the culture supernatants were harvested. Immunoglobulin E levels were determined using a commercial double-sandwich ELISA assay (catalogue number 2655KI, PharMingen)."}}, "note": "Square brackets hold non-standard residues; d marks the D form. Ends that are not written are not given here. Vat = not defined here"}
{"substance": "LLTVSGAWA [539.8]", "values": [{"measurement": "effect of exogenous human beta-2 microglobulin on surface expression of HLA-A2.1", "setting": "[1]; RMA-S-A2.1 cells incubated with peptide in presence versus absence of human beta-2 microglobulin", "result": "did not substantially enhance surface expression of HLA-A2.1"}, {"measurement": "Increase of HLA-A2.1-specific fluorescence intensity", "setting": "[1]", "result": "one log"}]}
{"substance": "Trp Val Asp Asn Lys Thr Phe Ser Vat (WVDNKTFS[Vat]; reading uncertain; also: printed as Trp Val Asp Asn Lys Thr Phe Ser Vat) [539.12]", "values": [{"measurement": "Increase of HLA-A2.1-specific fluorescence intensity", "setting": "[1]", "result": "one log"}]}
{"substance": "WLSDRTYTC [539.11]", "values": [{"measurement": "Increase of HLA-A2.1-specific fluorescence intensity", "setting": "[1]", "result": "one log"}]}
{"substance": "LYCFIYGHI [p1]", "values": [{"measurement": "CTL response cytotoxic to target cells displaying the peptide (specific lysis)", "setting": "[2]", "result": "able to elicit a CTL response"}]}
{"substance": "IYGHILNDV [p2, lie Tyr Gly His li0e Leu Asn Asp Val]", "values": [{"measurement": "CTL response cytotoxic to target cells displaying the peptide (specific lysis)", "setting": "[2]", "result": "able to elicit a CTL response"}]}
{"substance": "Ile Gln Leu Tyr Cys Phe Ile Try Gly His Ile Leu Asn Asp Val Ser Val (IQLYCFIYGHILNDVSV; Mouse (Mus musculus)) [p4]", "values": [{"measurement": "immunoglobulin E-specific CTL response", "setting": "[3]", "result": "comparable levels of immunoglobulin E-specific CTL response"}]}
{"substance": "ISQAVHAAHAEINEAGR [OVAp, co-stimulatory factor]", "values": [{"measurement": "CTL response against p3-treated P815 target cells", "setting": "[2]; BALB/c mice immunized with OVAp in liposomes only", "result": "did not induce a substantial CTL-response"}, {"measurement": "KLH-specific IgE PCA titre", "setting": "[4]", "result": 160}, {"measurement": "immunoglobulin E production in vitro", "setting": "[5]", "result": "did not decrease immunoglobulin E production"}]}
{"substance": "TQSPSVFPL [539.10]", "values": [{"measurement": "Increase of HLA-A2.1-specific fluorescence intensity", "setting": "[1]", "result": "one log"}]}
{"substance": "QLPDARHST [539.9]", "values": [{"measurement": "Increase of HLA-A2.1-specific fluorescence intensity", "setting": "[1]", "result": "one log"}]}
